Reference: US20240318160A1 (Wisconsin Alumni Research Foundation, priority 2023, published 2024)

Columns and labels:
Format in all cases: biochemical
[1] = tested on: PAL^F140H mutants (JaPAL^F140H, EmoPAL^F134H, BdPAL^F137H, SbPAL^F135H); experiment: TAL and PAL enzyme kinetics, group of enzymes; conditions: TAL activity, range over mutants
Protocol: (§1) The kinetic parameters of the recombinant enzymes were determined using HPLC. Reaction mixtures containing 100 mM Tris-HCl (pH 8.5), 1% glycerol, and purified enzyme (0.15 μg for PAL assay and 1 μg for TAL assay) in a 50 μl total volume were preincubated for 3 min at 30° C. […] After 10 min and 20 min incubations for PAL and TAL assay, respectively, at 30° C., the reaction was terminated by addition of 6N acetic acid (10 μl). […] The products were quantified using calibration curves generated using authentic standards. Non-linear hyperbolic regression analyses were conducted using the Excel Solver tool to calculate Km and Vmax values.

[2] = tested on: PTAL^H140F mutants (SbPTAL^H123F, BdPTAL^H123F, SaPTAL-a^H118F, SaPTAL-b^H126F, EmoPTAL^H127F, JaPTAL^H125F); experiment: TAL and PAL enzyme kinetics, group of enzymes; conditions: TAL activity, range over mutants
Text: To experimentally test the role of His 140 in the acquisition of TAL activity, we next conducted site-directed mutagenesis on the PAL and PTAL enzymes of grasses and non-grass graminids characterized above and analyzed their effects on TAL activity. For the PAL enzymes, the residue corresponding to Phe 140 was converted to His to generate JaPAL^F140H EmoPAL^F134H, BdPAL^F137H, and SbPAL^F135H. […] For the PTAL enzymes, the residue corresponding to His 140 was converted to Phe to generate SbPTAL^H123F, BdPTAL^H123F, SaPTAL-a^H118F, SaPTAL-b^H126F, EmoPTAL^H127F, and JaPTAL^H125F. […] Thus, unlike in the bacterial TAL enzyme (Watts et al., 2006), other residues besides the His 140 are likely important for the acquisition of strong TAL activity in the PTAL enzymes of grasses and closely-related non-grass graminids.
The kinetic parameters of the recombinant enzymes were determined using HPLC. Reaction mixtures containing 100 mM Tris-HCl (pH 8.5), 1% glycerol, and purified enzyme (0.15 μg for PAL assay and 1 μg for TAL assay) in a 50 μl total volume were preincubated for 3 min at 30° C. PAL and TAL reactions were started by addition of 50 μl substrate solution prepared with 0-4 mM L-Phe and 0-2 mM L-Tyr. After 10 min and 20 min incubations for PAL and TAL assay, respectively, at 30° C., the reaction was terminated by addition of 6N acetic acid (10 μl). […] The products were quantified using calibration curves generated using authentic standards. Non-linear hyperbolic regression analyses were conducted using the Excel Solver tool to calculate Km and Vmax values.

[3] = tested on: Joinvillea ascendens JaPAL^F140H_MUT8 variant V500I; experiment: TAL and PAL enzyme kinetics; conditions: TAL assay (L-Tyr), pH 8.5, 30° C.
Protocol: (§2) To determine which of the 8 circle residues are essential in the conversion of PAL enzymes to PTAL enzymes (FIG. 3C), we mutated, one by one, each one of these 8 residues back to the PAL type in JaPAL^F140H_MUT8 and determined their effects on catalytic efficiency.
(§3) A mixture containing 100 mM Tris-HCl (pH 8.5), 1% glycerol, and purified enzyme in a total volume of 50 μl was preincubated for 3 min at 30° C. […] The reactions were terminated by addition of 6N acetic acid (10 μl).
as §1

[4] = tested on: Joinvillea ascendens JaPAL^F140H_MUT8 variant I122S (in Table 3; I112S in text); experiment: TAL and PAL enzyme kinetics; conditions: TAL assay (L-Tyr), pH 8.5, 30° C.
Protocol: as §2, §3, §1

[5] = tested on: Joinvillea ascendens JaPAL^F140H_MUT8 variant S267A; experiment: TAL and PAL enzyme kinetics; conditions: TAL assay (L-Tyr), pH 8.5, 30° C.
Protocol: as §2, §3, §1

[6] = tested on: Joinvillea ascendens JaPAL^F140H_MUT8 variant A448S; experiment: TAL and PAL enzyme kinetics; conditions: TAL assay (L-Tyr), pH 8.5, 30° C.
Protocol: as §2, §3, §1

[7] = tested on: Joinvillea ascendens JaPAL^F140H_MUT8 variant L138I; experiment: TAL and PAL enzyme kinetics; conditions: TAL assay (L-Tyr), pH 8.5, 30° C.
Protocol: as §2, §3, §1

[8] = tested on: Joinvillea ascendens JaPAL^F140H_MUT8 variant I102V; experiment: TAL and PAL enzyme kinetics; conditions: TAL assay (L-Tyr), pH 8.5, 30° C.
Protocol: as §2, §3, §1

[9] = tested on: Joinvillea ascendens JaPAL^F140H_MUT8 variant T444P; experiment: TAL and PAL enzyme kinetics; conditions: TAL assay (L-Tyr), pH 8.5, 30° C.
Protocol: as §2, §3, §1

[10] = tested on: Joinvillea ascendens JaPAL^F140H_MUT8 variant G121A; experiment: TAL and PAL enzyme kinetics; conditions: TAL assay (L-Tyr), pH 8.5, 30° C.
Protocol: as §2, §3, §1

[11] = tested on: Ecdeiocolea monostachya EmoPTAL variant H127F (EmoPTAL^H127F); experiment: TAL and PAL enzyme kinetics; conditions: TAL assay (L-Tyr), pH 8.5, 30° C.
Protocol: as §3, §1

[12] = target: Arabidopsis thaliana AtPAL1 variant F144H (AtPAL1^F144H), SEQ ID NO: 261 (Arabidopsis thaliana, UniProt P35510, F144H); experiment: TAL and PAL enzyme kinetics; conditions: TAL assay (L-Tyr), pH 8.5, 30° C.
Protocol: as §3, §1

[13] = tested on: Ecdeiocolea monostachya EmoPAL variant F134H (EmoPAL^F134H); experiment: TAL and PAL enzyme kinetics; conditions: TAL assay (L-Tyr), pH 8.5, 30° C.
Protocol: as §3, §1

[14] = tested on: Joinvillea ascendens JaPTAL, wild type, SEQ ID NO: 27; experiment: TAL and PAL enzyme kinetics; conditions: TAL assay (L-Tyr), pH 8.5, 30° C.
Protocol: as §3, §1

[15] = tested on: Sorghum bicolor SbPAL variant F135H (SbPAL^F135H); experiment: TAL and PAL enzyme kinetics; conditions: TAL assay (L-Tyr), pH 8.5, 30° C.
Protocol: as §3, §1

[16] = tested on: Streptochaeta angustifolia SaPTAL-a variant H118F (SaPTAL-a^H118F); experiment: TAL and PAL enzyme kinetics; conditions: TAL assay (L-Tyr), pH 8.5, 30° C.
Protocol: as §3, §1

[17] = tested on: Streptochaeta angustifolia SaPTAL-b variant H126F (SaPTAL-b^H126F); experiment: TAL and PAL enzyme kinetics; conditions: TAL assay (L-Tyr), pH 8.5, 30° C.
Protocol: as §3, §1

[18] = tested on: wild-type PTAL enzymes (SbPTAL, BdPTAL, SaPTAL-a, SaPTAL-b, EmoPTAL, JaPTAL); experiment: TAL enzyme kinetics, group of enzymes; conditions: TAL activity (Tyr), range over PTAL enzymes; read-out: apparent Km
Protocol: as §1

[19] = tested on: Joinvillea ascendens JaPAL variant F140H/S112I (JaPAL^F140H_S112I), SEQ ID NO: 145; experiment: TAL and PAL enzyme kinetics; conditions: TAL assay (L-Tyr), pH 8.5, 30° C.
Protocol: To test this hypothesis further, the reciprocal S112I mutation was introduced into the JaPAL^F140H single mutant to generate the JaPAL^F140H_S112I double mutant. For comparison, a single mutant in which the residue corresponding to Ser112 was converted to Ile (i.e., JaPAL^S112I) was generated as well.
as §3, §1

Sequence of Arabidopsis thaliana AtPAL1 variant F144H (AtPAL1^F144H), SEQ ID NO: 261 (P35510 whole entry F144H): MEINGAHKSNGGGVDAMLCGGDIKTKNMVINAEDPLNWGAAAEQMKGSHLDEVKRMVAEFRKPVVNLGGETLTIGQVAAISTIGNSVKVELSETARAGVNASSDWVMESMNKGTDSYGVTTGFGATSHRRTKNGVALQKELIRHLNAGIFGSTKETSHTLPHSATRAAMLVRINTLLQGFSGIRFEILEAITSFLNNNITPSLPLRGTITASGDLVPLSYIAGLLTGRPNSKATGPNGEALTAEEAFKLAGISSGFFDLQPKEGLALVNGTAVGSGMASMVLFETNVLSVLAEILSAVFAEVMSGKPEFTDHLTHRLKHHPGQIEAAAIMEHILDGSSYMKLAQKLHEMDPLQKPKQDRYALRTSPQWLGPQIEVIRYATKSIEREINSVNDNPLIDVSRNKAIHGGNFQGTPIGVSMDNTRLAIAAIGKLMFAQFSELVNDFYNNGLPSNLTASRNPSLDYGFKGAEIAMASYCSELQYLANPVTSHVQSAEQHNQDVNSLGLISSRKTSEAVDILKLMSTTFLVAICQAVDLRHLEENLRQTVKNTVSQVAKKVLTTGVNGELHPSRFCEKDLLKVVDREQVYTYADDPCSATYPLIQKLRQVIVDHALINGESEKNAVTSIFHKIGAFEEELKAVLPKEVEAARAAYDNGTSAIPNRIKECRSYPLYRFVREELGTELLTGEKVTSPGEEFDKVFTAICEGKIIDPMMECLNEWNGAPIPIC

N[C@@H](Cc1ccc(O)cc1)C(=O)O [L-Tyr, tyrosine]
Km [1]: 222 to 450 µM | Km [2]: 531 to 765 µM | Km [3]: 25.1 ± 3.2 µM | Km [4]: 282 ± 29 µM | Km [5]: 43.1 ± 1.5 µM | Km [6]: 23.3 ± 1 µM | Km [7]: 18.3 ± 0.6 µM | Km [8]: 24.5 ± 1.4 µM | Km [9]: 25.3 ± 2.4 µM | Km [10]: 12.6 ± 0.6 µM | Km [11]: 614 ± 18.1 µM | kcat [12]: 0.01 ± 0.00 s⁻¹ | Km [13]: 450 ± 14.2 µM | Km [14]: 11 ± 0.4 µM | Km [15]: 413 ± 6.5 µM | Km [16]: 531 ± 13.2 µM | Km [17]: 724 ± 54.8 µM | Km [18]: 11 to 19 µM | Km [19]: 17.2 ± 0.7 µM
